Test results: PubChem BioAssay (NCI)
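The compound was tested at five concentrations on cells cultured in 96-well plates, with a 48-hour exposure period. Definition used: TGI = concentration required for complete inhibition of growth.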

Assays:
Assay in all cases: DTP human tumour cell line panel, 48 h
UACC-62 melanoma = tested on: UACC-62 melanoma
HL-60(TB) leukemia = tested on: HL-60(TB) leukemia
NCI-H23 lung = tested on: NCI-H23 lung
786-0 renal = tested on: 786-0 renal
TK-10 renal = tested on: TK-10 renal
UACC-257 melanoma = tested on: UACC-257 melanoma
SF-295 CNS = tested on: SF-295 CNS
MOLT-4 leukemia = tested on: MOLT-4 leukemia
CAKI-1 renal = tested on: CAKI-1 renal
CCRF-CEM leukemia = tested on: CCRF-CEM leukemia
MDA-MB-231 breast = tested on: MDA-MB-231 breast
SR leukemia = tested on: SR leukemia
NCI-H226 lung = tested on: NCI-H226 lung
HOP-62 NSCLC = tested on: HOP-62 NSCLC
OVCAR-5 ovarian = tested on: OVCAR-5 ovarian
MDA-MB-435 = tested on: MDA-MB-435
OVCAR-3 ovarian = tested on: OVCAR-3 ovarian
NCI-H522 lung = tested on: NCI-H522 lung
HCC-2998 colon = tested on: HCC-2998 colon
HS 578T breast = tested on: HS 578T breast
T-47D breast = tested on: T-47D breast
HCT-15 colon = tested on: HCT-15 colon
EKVX NSCLC = tested on: EKVX NSCLC
HT29 colon = tested on: HT29 colon
DU-145 prostate = tested on: DU-145 prostate
MDA-N = tested on: MDA-N
NCI/ADR-RES ovarian = tested on: NCI/ADR-RES ovarian
IGROV1 ovarian = tested on: IGROV1 ovarian
COLO 205 colon = tested on: COLO 205 colon
RXF 393 renal = tested on: RXF 393 renal
OVCAR-4 ovarian = tested on: OVCAR-4 ovarian
MCF7 breast = tested on: MCF7 breast
SF-539 CNS = tested on: SF-539 CNS
NCI-H460 lung = tested on: NCI-H460 lung
SK-MEL-2 melanoma = tested on: SK-MEL-2 melanoma
M14 melanoma = tested on: M14 melanoma
SF-268 CNS = tested on: SF-268 CNS
OVCAR-8 ovarian = tested on: OVCAR-8 ovarian
MALME-3M melanoma = tested on: MALME-3M melanoma
SK-OV-3 ovarian = tested on: SK-OV-3 ovarian
SN12C renal = tested on: SN12C renal
K-562 leukemia = tested on: K-562 leukemia
A498 renal = tested on: A498 renal
SK-MEL-5 melanoma = tested on: SK-MEL-5 melanoma
PC-3 prostate = tested on: PC-3 prostate
BT-549 breast = tested on: BT-549 breast
A549 NSCLC = tested on: A549 NSCLC
U251 CNS = tested on: U251 CNS
HCT-116 colon = tested on: HCT-116 colon
LOX IMVI melanoma = tested on: LOX IMVI melanoma
SNB-75 CNS = tested on: SNB-75 CNS
SK-MEL-28 melanoma = tested on: SK-MEL-28 melanoma
ACHN renal = tested on: ACHN renal
HOP-92 NSCLC = tested on: HOP-92 NSCLC
UO-31 renal = tested on: UO-31 renal
SW-620 colon = tested on: SW-620 colon
KM12 colon = tested on: KM12 colon
SNB-19 CNS = tested on: SNB-19 CNS

Measured: TGI

O=C1C=CC(=O)N1n1c(-c2ccccc2)n[nH]c1=O
not listed: LOX IMVI melanoma | SNB-75 CNS | SK-MEL-28 melanoma | ACHN renal | HOP-92 NSCLC | UO-31 renal | SW-620 colon | KM12 colon | SNB-19 CNS
> 100 µM: all other assays above

c1cncc(CC2(c3cc4ccccc4[nH]3)OCCO2)c1
not listed: MOLT-4 leukemia | HOP-62 NSCLC | OVCAR-5 ovarian | OVCAR-3 ovarian | EKVX NSCLC | RXF 393 renal | M14 melanoma | K-562 leukemia
> 100 µM: all other assays above
